This passage reports IC50 results from patent US20250064789A1, “KETOAMIDE DERIVATIVES AND PHARMACEUTICAL USES THEREOF” (priority 2022, published 2025).

By IC50 is commonly meant the concentration that inhibits the measured activity by half.

Read-outs that look alike come from different tables or passages of the source.

The target in the experiment is recombinant SARS-CoV-2 M^pro (Severe acute respiratory syndrome coronavirus 2 (2019-nCoV) (SARS-CoV-2), UniProt P0DTD1). Description: Inhibition of SARS-CoV-2 M^pro enzyme activity (fluorescent substrate assay). It is filed as biochemical. As to conditions: inhibition of SARS-CoV-2 M^pro enzyme activity, read-out: IC50.

With `C[C@@H](NC(=O)[C@@H]1C[C@@H]2[C@H](C1)C2(F)F)C(=O)N[C@H](Cc1ccccc1)C(=O)C(=O)NCc1nccs1` [Compound 377], the IC50 (values in nM) came out at 80 ± 3.6 nM.

Regarding `C[C@@H](NC(=O)c1cc2ccccc2[nH]1)C(=O)N[C@H](Cc1ccccc1)C(=O)C(=O)NCc1nccs1` [Compound 380], the IC50 (values in nM) came out at 55.8 ± 7.2 nM. Take `C[C@@H](NC(=O)c1ccn(-c2ccccc2)n1)C(=O)N[C@H](Cc1ccccc1)C(=O)C(=O)NCc1nccs1` [Compound 381]: for the setting “values in nM”, the 50% inhibitory concentration (IC50) is 416.8 ± 4 nM. With `C[C@@H](NC(=O)Cc1cc(OC(F)(F)F)ccc1F)C(=O)N[C@H](Cc1ccccc1)C(=O)C(=O)NCc1nccs1` [Compound 382], under “values given in μM”, the IC50 was 15000 ± 1300 nM. On to `C[C@@H](NC(=O)c1cc(Cl)cc(OC(F)(F)F)c1)C(=O)N[C@H](Cc1ccccc1)C(=O)C(=O)NCc1nccs1` [Compound 383], for which the IC50 (values in nM) worked out at 21.5 ± 0.8 nM.

On to `COc1ccc(OC(F)(F)F)cc1C(=O)N[C@H](C)C(=O)N[C@H](Cc1ccccc1)C(=O)C(=O)NCc1nccs1` [Compound 384], for which the IC50 (values in nM) turned out to be 15.5 ± 0.3 nM. Same read-out and setting: for `C[C@@H](NC(=O)c1cc(OC(F)(F)F)ccc1F)C(=O)N[C@H](Cc1ccccc1)C(=O)C(=O)NCc1nccs1` [Compound 385] the value was 55.8 ± 7.2 nM; for `O=C(CC1CC1(F)F)NCC(=O)N[C@H](Cc1ccccc1)C(=O)C(=O)NCc1nccs1` (stereo partly drawn) [Compound 386], 166 ± 2.1 nM; for `O=C(CNC(=O)C1CCC(F)(F)CC1)N[C@H](Cc1ccccc1)C(=O)C(=O)NCc1nccs1` [Compound 388], 62.9 ± 8.1 nM.

With `O=C(CNC(=O)[C@@H]1C[C@@H]2[C@H](C1)C2(F)F)N[C@H](Cc1ccccc1)C(=O)C(=O)NCc1nccs1` [Compound 389], the IC50 (values in nM) is 110 ± 1.6 nM. For the compound `O=C(CC1CCC(F)(F)CC1)NCC(=O)N[C@H](Cc1ccccc1)C(=O)C(=O)NCc1nccs1` [Compound 390], for the setting “values in nM”, the IC50 stood at 21.8 ± 1.1 nM. The same measure, in the same setting: the same measure for `O=C(CNC(=O)C1CCC(F)(F)C1)N[C@H](Cc1ccccc1)C(=O)C(=O)NCc1nccs1` (stereo partly drawn) [Compound 391]: 109 ± 8.6 nM; for `COC[C@@H](NC(=O)C1CCC(F)(F)CC1)C(=O)N[C@H](Cc1ccccc1)C(=O)C(=O)NCc1nccs1` [Compound 393]: 88.2 ± 5.6 nM.

In the case of `COC[C@@H](NC(=O)CC1CCC(F)(F)CC1)C(=O)N[C@H](Cc1ccccc1)C(=O)C(=O)NCc1nccs1` [Compound 394], the IC50 (values in nM) is 12.4 ± 1.4 nM.

Turning to `COC[C@@H](NC(=O)CC1CC1(F)F)C(=O)N[C@H](Cc1ccccc1)C(=O)C(=O)NCc1nccs1` (stereo partly drawn) [Compound 396], the IC50 (values in nM) turned out to be 48.8 ± 0.4 nM. Consider `COC[C@@H](NC(=O)[C@H]1CC[C@@H](F)CC1)C(=O)N[C@H](Cc1ccccc1)C(=O)C(=O)NCc1nccs1` [Compound 399], for which, under “values in nM”, the IC50 is 32.8 ± 1.5 nM. On the same count and under the same terms, for `O=C(NCc1nccs1)C(=O)[C@@H](Cc1ccccc1)NC(=O)[C@H]1CC(F)(F)CN1C(=O)CC1CCC(F)(F)CC1` [Compound 401] the value was 19 ± 0.1 nM; for `O=C(NCc1nccs1)C(=O)[C@@H](Cc1ccccc1)NC(=O)[C@H]1CC(F)(F)CN1C(=O)C1CCCC(F)(F)C1` (stereo partly drawn) [Compound 403], 20.4 ± 2.4 nM; for `O=C(NCc1nccs1)C(=O)[C@@H](Cc1ccccc1)NC(=O)[C@H]1CC(F)(F)CN1C(=O)C1CCC(F)(F)C1` (stereo partly drawn) [Compound 404], 47.7 ± 1 nM.

On to `O=C(NCc1nccs1)C(=O)[C@@H](Cc1ccccc1)NC(=O)[C@H]1CC(F)(F)CN1C(=O)CC1CC1(F)F` (stereo partly drawn) [Compound 405], for which the IC50 (values in nM) came to 104 ± 1.7 nM. Regarding `O=C(NCc1nccs1)C(=O)[C@@H](Cc1ccccc1)NC(=O)[C@H]1CC(F)(F)CN1C(=O)[C@@H]1C[C@@H]2[C@H](C1)C2(F)F` [Compound 406], where the note is “values in nM”, the IC50 worked out at 52.7 ± 1.1 nM. As to `O=C(NCc1nccs1)C(=O)[C@@H](Cc1ccccc1)NC(=O)[C@H]1COCCN1C(=O)C1CCC(F)(F)CC1` [Compound 407], where the note is “values in nM”, the IC50 came to 21.4 ± 0.3 nM. `O=C(NCc1nccs1)C(=O)[C@@H](Cc1ccccc1)NC(=O)[C@H]1COCCN1C(=O)CC1CC(F)(F)C1` [Compound 408]: the IC50 (values in nM) was 14.9 ± 0.5 nM. For `O=C(NCc1nccs1)C(=O)[C@@H](Cc1ccccc1)NC(=O)[C@H]1COCCN1C(=O)C1CCC(F)(F)C1` (stereo partly drawn) [Compound 409], under “values in nM”, the concentration for half-maximal inhibition (IC50) came to 36.6 ± 0.4 nM. Still for that read-out and setting: the same measure for `O=C(NCc1nccs1)C(=O)[C@@H](Cc1ccccc1)NC(=O)[C@H]1COCCN1C(=O)C1CCCC(F)(F)C1` (stereo partly drawn) [Compound 410]: 25.3 ± 1.7 nM; for `O=C(NCc1nccs1)C(=O)[C@@H](Cc1ccccc1)NC(=O)[C@H]1COCCN1C(=O)CC1CCC(F)(F)CC1` [Compound 411]: 15.5 ± 0.1 nM.

Consider `O=C(NCc1nccs1)C(=O)[C@@H](Cc1ccccc1)NC(=O)[C@H]1COCCN1C(=O)[C@@H]1C[C@@H]2[C@H](C1)C2(F)F` [Compound 412], for which, where the note is “values in nM”, the IC50 amounted to 24.8 ± 0.8 nM. The same measure, in the same setting: the same measure for `O=C(NCc1nccs1)C(=O)[C@@H](Cc1ccccc1)NC(=O)[C@H]1COCCN1C(=O)CC1CC1(F)F` (stereo partly drawn) [Compound 413]: 29.1 ± 2.5 nM; for `C[C@@H](NC(=O)N1CCC(F)(F)CC1)C(=O)N[C@H](Cc1ccccc1)C(=O)C(=O)NCc1nccs1` [Compound 414]: 95.9 ± 9.7 nM. For `C[C@@H](NC(=O)C1CCCC(F)(F)C1)C(=O)N[C@H](Cc1ccccc1)C(=O)C(=O)NCc1cscn1` (stereo partly drawn) [Compound 416], the IC50 (values in nM) was determined as 19 ± 0.4 nM.

For the compound `C[C@@H](NC(=O)CC1CCC(F)(F)CC1)C(=O)N[C@H](Cc1ccccc1)C(=O)C(=O)NCc1cscn1` [Compound 419], the IC50 (values in nM) stood at 9.8 ± 0.1 nM. Still for that read-out and setting: the same measure for `C[C@@H](NC(=O)[C@@H]1C[C@@H]2[C@H](C1)C2(F)F)C(=O)N[C@H](Cc1ccccc1)C(=O)C(=O)NCc1cscn1` [Compound 420]: 10.8 ± 0.7 nM; for `O=C(CNC(=O)C1CCC(F)(F)CC1)N[C@H](Cc1ccccc1)C(=O)C(=O)NCc1cscn1` [Compound 421]: 20.7 ± 0.5 nM.

For `O=C(CC1CCC(F)(F)CC1)NCC(=O)N[C@H](Cc1ccccc1)C(=O)C(=O)NCc1cscn1` [Compound 422], the IC50 (values in nM) turned out to be 17.1 ± 0.1 nM.

On to `O=C(CNC(=O)[C@@H]1C[C@@H]2[C@H](C1)C2(F)F)N[C@H](Cc1ccccc1)C(=O)C(=O)NCc1cscn1` [Compound 424], for which the IC50 (values in nM) worked out at 20.7 ± 0.2 nM.

Regarding `O=C(CC1CC1(F)F)NCC(=O)N[C@H](Cc1ccccc1)C(=O)C(=O)NCc1cscn1` (stereo partly drawn) [Compound 425], the IC50 (values in nM) amounted to 36.5 ± 0.3 nM. Regarding `O=C(CNC(=O)C1CCCCCC1)N[C@H](Cc1ccccc1)C(=O)C(=O)NCc1cscn1` [Compound 426], the IC50 (values in nM) was 9.4 ± 0.1 nM. As for `O=C(CNC(=O)C1CC2CCC1C2)N[C@H](Cc1ccccc1)C(=O)C(=O)NCc1cscn1` (stereo partly drawn) [Compound 427], for the setting “values in nM”, the IC50 was 20.9 ± 0.4 nM. Turning to `O=C(CNC(=O)C1(F)CCCCC1)N[C@H](Cc1ccccc1)C(=O)C(=O)NCc1cscn1` [Compound 428], the IC50 (values in nM) is 17.1 ± 0.1 nM.

On to `O=C(CNC(=O)C1CCC(F)(F)C1)N[C@H](Cc1ccccc1)C(=O)C(=O)NCc1cscn1` (stereo partly drawn) [Compound 429], for which the IC50 (values in nM) is 33.8 ± 1 nM. As for `O=C(CNC(=O)C1CCCC(F)(F)C1)N[C@H](Cc1ccccc1)C(=O)C(=O)NCc1cscn1` (stereo partly drawn) [Compound 430], for the setting “values in nM”, the IC50 came to 20 ± 0.5 nM. On to `COC[C@@H](NC(=O)C1CCC(F)(F)CC1)C(=O)N[C@H](Cc1ccccc1)C(=O)C(=O)NCc1cscn1` [Compound 431], for which the IC50 (values in nM) turned out to be 233.7 ± 1.8 nM.

For `COC[C@@H](NC(=O)CC1CCC(F)(F)CC1)C(=O)N[C@H](Cc1ccccc1)C(=O)C(=O)NCc1cscn1` [Compound 432], where the note is “values in nM”, the IC50 was 11.5 ± 0.1 nM. Same read-out and setting: for `O=C(NCc1cscn1)C(=O)[C@@H](Cc1ccccc1)NC(=O)[C@H]1CC(F)(F)CN1C(=O)C1CCC(F)(F)CC1` [Compound 433] the value was 749.6 ± 1.1 nM. Take `O=C(NCc1cscn1)C(=O)[C@@H](Cc1ccccc1)NC(=O)[C@H]1CC(F)(F)CN1C(=O)C1CCCC(F)(F)C1` (stereo partly drawn) [Compound 434]: the IC50 (values given in μM) stood at 2050 ± 20 nM. Turning to `O=C(NCc1cscn1)C(=O)[C@@H](Cc1ccccc1)NC(=O)[C@H]1COCCN1C(=O)CC1CC1(F)F` (stereo partly drawn) [Compound 435], the IC50 (values in nM) came out at 58.2 ± 1.3 nM. On the same count and under the same terms, for `O=C(NCc1cscn1)C(=O)[C@@H](Cc1ccccc1)NC(=O)[C@H]1COCCN1C(=O)CC1CC(F)(F)C1` [Compound 436] the value was 171 ± 2.4 nM. Same read-out and setting: the same measure for `O=C(NCc1cscn1)C(=O)[C@@H](Cc1ccccc1)NC(=O)[C@H]1COCCN1C(=O)C1CCC(F)(F)C1` (stereo partly drawn) [Compound 437]: 61.1 ± 1.2 nM. Same read-out and setting: the same measure for `O=C(NCc1cscn1)C(=O)[C@@H](Cc1ccccc1)NC(=O)[C@H]1COCCN1C(=O)C1CCC(F)(F)CC1` [Compound 438]: 23.4 ± 1.8 nM; for `O=C(CNC(=O)c1ccc(Cl)cc1)N[C@H](Cc1ccccc1)C(=O)C(=O)NCc1ccccn1` [Compound 439]: 46.2 ± 0.3 nM; for `O=C(CNC(=O)c1ccc(Cl)c(Cl)c1)N[C@H](Cc1ccccc1)C(=O)C(=O)NCc1ccccn1` [Compound 440]: 20.4 ± 0.4 nM.

Consider `O=C(CNC(=O)c1ccc(F)c(Cl)c1)N[C@H](Cc1ccccc1)C(=O)C(=O)NCc1ccccn1` [Compound 441], for which the IC50 (values in nM) came out at 18.5 ± 0.3 nM. Turning to `N#Cc1cc(F)cc(C(=O)NCC(=O)N[C@H](Cc2ccccc2)C(=O)C(=O)NCc2ccccn2)c1` [Compound 442], the IC50 (values in nM) was determined as 20.6 ± 1 nM. Regarding `N#Cc1ccc(C(=O)NCC(=O)N[C@H](Cc2ccccc2)C(=O)C(=O)NCc2ccccn2)cc1F` [Compound 443], the IC50 (values in nM) is 168 ± 1.9 nM.

Take `O=C(CNC(=O)c1cc2ccccc2o1)N[C@H](Cc1ccccc1)C(=O)C(=O)NCc1ccccn1` [Compound 444]: the IC50 (values in nM) stood at 214.3 ± 1.2 nM. The same measure, in the same setting: for `O=C(CNC(=O)C1CCCCC1)N[C@H](Cc1ccccc1)C(=O)C(=O)NCc1ccccn1` [Compound 445] the value was 21.8 ± 0.3 nM; for `O=C(CNC(=O)C1CCOCC1)N[C@H](Cc1ccccc1)C(=O)C(=O)NCc1ccccn1` [Compound 446], 414.1 ± 1.8 nM; for `O=C(CNC(=O)C1CCC(F)(F)CC1)N[C@H](Cc1ccc(Cl)cc1)C(=O)C(=O)NCc1ccccn1` [Compound 447], 187.3 ± 1.1 nM. `O=C(CNC(=O)C1CCC(F)(F)CC1)N[C@H](Cc1cccc(Cl)c1)C(=O)C(=O)NCc1ccccn1` [Compound 448]: for the setting “values in nM”, the IC50 stood at 59.9 ± 0.5 nM. On to `O=C(CNC(=O)C1CCC(F)(F)CC1)N[C@H](Cc1ccccc1Cl)C(=O)C(=O)NCc1ccccn1` [Compound 449], for which the 50% inhibitory concentration (IC50) (values in nM) came out at 45.3 ± 1.2 nM.
